Experimental data published in PMC9235088, “Characterization of a new L-carnosine synthase mined from deep-sea sediment metagenome” (Microbial Cell Factories, 2022).

Tested on: T1, gene_236976 product (L-carnosine synthase, L-aminopeptidase)
T1 construct: codon-optimised synthetic gene in pET-26b (NcoI/XhoI), his6-tagged, E. coli BL21(DE3), Ni-agarose purified
Assay: HPLC of L-carnosine formed, Michaelis-Menten fit
Type: biochemical, metagenome: deep-sea sediment
Conditions: 100 mM β-AlaOMe, 0-400 mM L-histidine; assay buffer Na2CO3/NaHCO3 pH 10.0, 30 °C; read-out: L-histidine^b / Km
From the text: HPLC of L-carnosine formed, Michaelis-Menten fit on gene_236976 product (L-carnosine synthase, L-aminopeptidase)

Km: 7.73 ± 0.29 mM
Structure (SMILES): N[C@@H](Cc1cnc[nH]1)C(=O)O [L-histidine]
